Assay results reported in patent publication US20230002359A1, “PESTICIDALLY ACTIVE FUSED BICYCLIC HETEROAROMATIC COMPOUNDS” (priority 2019, published 2023).

How the values were obtained:
Assay type in all cases: in vivo
[1] = test system: Myzus persicae (Green Peach Aphid); assay: Example B6: Myzus persicae (green peach aphid) intrinsic activity, sucrose solution; details: 120 h, test rate of 12 ppm, 5 days after infestation, intrinsic activity, read-out: mortality
Outline: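 Mortality was read 5 days after infestation. Aphids on pea seedlings fed through a stretched Parafilm membrane on inverted 24-well plates containing sucrose solution mixed with test compound, which was diluted from 10′000 ppm DMSO stock.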

[2] = test system: Diabrotica Balteata (Corn Root Worm); assay: Example B1: Diabrotica balteata (corn root worm), maize sprouts sprayed, L2 larvae; details: 96 h, application rate of 200 ppm, 4 days after infestation, L2 larvae, read-out: control in at least one of the two categories (mortality or growth inhibition)
Outline: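 Larvae at L2 stage, 6 to 10 per well, feed on dried, spray-treated maize sprouts set on agar. Evaluation after 4 days compares mortality and growth inhibition with untreated samples.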

[3] = test system: Myzus persicae (Green Peach Aphid); assay: Example B5: Myzus persicae (green peach aphid) feeding/contact activity, sunflower leaf discs; details: foliar, 144 h, application rate of 200 ppm, 6 days after infestation
Procedure: Sunflower leaf discs were placed onto agar in a 24-well microtiter plate and sprayed with aqueous test solutions prepared from 10′000 ppm DMSO stock solutions. After drying, the leaf discs were infested with an aphid population of mixed ages. The samples were assessed for mortality 6 days after infestation.

[4] = test system: Spodoptera littoralis (Egyptian Cotton Leaf Worm); assay: Example B7: Spodoptera littoralis (Egyptian cotton leaf worm), cotton leaf discs sprayed, L1 larvae; details: foliar, 72 h, application rate of 200 ppm, 3 days after infestation, L1 larvae, read-out: control in at least one of the three categories (mortality, anti-feedant effect, or growth inhibition)
Outline: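 Read-out: mortality, feeding deterrence and growth inhibition, assessed 3 days after infestation relative to untreated samples. Sprayed, dried cotton leaf discs on agar each received five first-instar (L1) larvae; sprays were aqueous solutions prepared from 10′000 ppm DMSO stocks.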

[5] = test system: Plutella xylostella (Diamond Back Moth); assay: Example B4: Plutella xylostella (diamond back moth), artificial diet, eggs, 24-well; details: 192 h, application rate of 200 ppm, 8 days after infestation, eggs, read-out: control in at least one of the two categories (mortality or growth inhibition)
Procedure: 24-well microtiter plates with artificial diet were treated with aqueous test solutions prepared from 10′000 ppm DMSO stock solutions by pipetting. After drying, Plutella eggs were pipetted through a plastic stencil onto a gel blotting paper and the plate was closed with it. The samples were assessed for mortality and growth inhibition in comparison to untreated samples 8 days after infestation.

[6] = test system: Chilo suppressalis (Striped Rice Stemborer); assay: Example B3: Chilo suppressalis (striped rice stemborer), artificial diet, L2 larvae; details: 144 h, application rate of 200 ppm, 6 days after infestation, L2 larvae, read-out: control in at least one of the three categories (mortality, anti-feedant effect, or growth inhibition)
Outline: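 Artificial diet treated with aqueous dilutions of DMSO stocks (10'000 ppm stock), dried, then infested with 6-8 L2 larvae per well. Mortality, anti-feeding and growth inhibition scored against untreated samples 6 days after infestation. Control counted when any category exceeds untreated.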

[7] = test system: Euschistus heros (Neotropical Brown Stink Bug); assay: Example B2: Euschistus heros (neotropical brown stink bug), soybean leaves sprayed, N2 nymphs; details: 120 h, application rate of 200 ppm, 5 days after infestation, N2 nymphs, read-out: control in at least one of the two categories (mortality or growth inhibition)
Procedure: Soybean leaves on agar in 24-well microtiter plates were sprayed with aqueous test solutions prepared from 10′000 ppm DMSO stock solutions. After drying the leaves were infested with N2 nymphs. The samples were assessed for mortality and growth inhibition in comparison to untreated samples 5 days after infestation.

C[C@@H](c1ncnn1-c1ccc(C#N)cn1)N(CC1CC1)c1ncnc2c(Cl)cc(C(F)(F)F)cc12 [P.271, 6-[5-[(1S)-1-[[8-chloro-6-(trifluoromethyl)quinazolin-4-yl]-(cyclopropylmethyl)amino]ethyl]-1,2,4-triazol-1-yl]pyridine-3-carbonitrile]
≥ 80%: mortality at 12 ppm [1] | percent control (mortality or growth inhibition) at 200 ppm [2] | mortality at 200 ppm [3] | percent control (mortality, anti-feedant effect or growth inhibition) at 200 ppm [4] | percent control (mortality or growth inhibition) at 200 ppm [5] | percent control (mortality, anti-feedant effect or growth inhibition) at 200 ppm [6] | percent control (mortality or growth inhibition) at 200 ppm [7]

CC(c1ncnn1-c1ccc(C#N)cn1)N(C)c1ncnc2c(Br)cc(OC(F)(F)F)cc12 (stereo not drawn) [P.217, 6-[5-[1-[[8-bromo-6-(trifluoromethoxy)quinazo-lin-4-yl]-methyl-amino]ethyl]-1,2,4-triazol-1-yl]pyridine-3-carbonitrile]
≥ 80%: mortality at 12 ppm [1] | percent control (mortality or growth inhibition) at 200 ppm [2] | mortality at 200 ppm [3] | percent control (mortality, anti-feedant effect or growth inhibition) at 200 ppm [4] | percent control (mortality or growth inhibition) at 200 ppm [5] | percent control (mortality, anti-feedant effect or growth inhibition) at 200 ppm [6]

CC(c1ncnn1-c1ncccn1)N(C)c1ncnc2c(C(F)(F)F)cc(Br)cc12 (stereo not drawn) [P.127, 6-bromo-N-methyl-N-[1-(2-pyrimidin-2-yl-1,2,4-triazol-3-yl)ethyl]-8-(trifluoromethyl)quinazolin-4-amine]
≥ 80%: mortality at 12 ppm [1] | percent control (mortality or growth inhibition) at 200 ppm [2] | mortality at 200 ppm [3] | percent control (mortality, anti-feedant effect or growth inhibition) at 200 ppm [4] | percent control (mortality or growth inhibition) at 200 ppm [5] | percent control (mortality, anti-feedant effect or growth inhibition) at 200 ppm [6]

C[C@@H](c1ncnn1-c1ccc(C(N)=S)cn1)N(C)c1ncnc2c(C(F)(F)F)cc(Cl)cc12 [P.191, 6-[5-[(1S)-1-[[6-chloro-8-(trifluoromethyl)quinazolin-4-yl]-methyl-amino]ethyl]-1,2,4-triazol-1-yl]pyridine-3-carbothioamide]
≥ 80%: mortality at 12 ppm [1] | percent control (mortality or growth inhibition) at 200 ppm [2] | mortality at 200 ppm [3] | percent control (mortality or growth inhibition) at 200 ppm [5] | percent control (mortality, anti-feedant effect or growth inhibition) at 200 ppm [6] | percent control (mortality or growth inhibition) at 200 ppm [7]

CC(c1ncnn1-c1ccc(F)cn1)N(C)c1ncnc2c(C(F)(F)F)cc(Br)cc12 (stereo not drawn) [P.188, 6-bromo-N-[1-[2-(5-fluoro-2-pyridyl)-1,2,4-triazol-3-yl]ethyl]-N-methyl-8-(trifluoromethyl)quinazolin-4-amine]
≥ 80%: mortality at 12 ppm [1] | percent control (mortality or growth inhibition) at 200 ppm [2] | mortality at 200 ppm [3] | percent control (mortality or growth inhibition) at 200 ppm [5] | percent control (mortality, anti-feedant effect or growth inhibition) at 200 ppm [6] | percent control (mortality or growth inhibition) at 200 ppm [7]

CC(c1ncnn1-c1ccc(F)cn1)N(C)c1ncnc2c(C(F)(F)F)cc(Cl)cc12 (stereo not drawn) [P.187, 6-chloro-N-[1-[2-(5-fluoro-2-pyridyl)-1,2,4-triazol-3-yl]ethyl]-N-methyl-8-(trifluoromethyl)quinazolin-4-amine]
≥ 80%: mortality at 12 ppm [1] | percent control (mortality or growth inhibition) at 200 ppm [2] | mortality at 200 ppm [3] | percent control (mortality or growth inhibition) at 200 ppm [5] | percent control (mortality, anti-feedant effect or growth inhibition) at 200 ppm [6] | percent control (mortality or growth inhibition) at 200 ppm [7]

CC(c1ncnn1-c1ncccn1)N(C)c1ncnc2c(Br)cc(Br)cc12 (stereo not drawn) [P.258, 6,8-dibromo-N-methyl-N-[1-(2-pyrimidin-2-yl-1,2,4-triazol-3-yl)ethyl]quinazolin-4-amine]
≥ 80%: mortality at 12 ppm [1] | percent control (mortality or growth inhibition) at 200 ppm [2] | mortality at 200 ppm [3] | percent control (mortality, anti-feedant effect or growth inhibition) at 200 ppm [4] | percent control (mortality or growth inhibition) at 200 ppm [5] | percent control (mortality, anti-feedant effect or growth inhibition) at 200 ppm [6]

C[C@H](Nc1ncnc2c(C(F)(F)F)cc(Cl)cc12)c1ncnn1-c1ncccn1 [P.24, 6-chloro-N-[(1S)-1-(2-pyrimidin-2-yl-1,2,4-triazol-3-yl)ethyl]-8-(trifluoromethyl)quinazolin-4-amine]
≥ 80%: mortality at 12 ppm [1] | percent control (mortality or growth inhibition) at 200 ppm [2] | mortality at 200 ppm [3] | percent control (mortality, anti-feedant effect or growth inhibition) at 200 ppm [4] | percent control (mortality or growth inhibition) at 200 ppm [5] | percent control (mortality, anti-feedant effect or growth inhibition) at 200 ppm [6]

C[C@@H](c1ncnn1-c1ccc(C#N)cn1)N(C)c1ncnc2c(C(F)(F)F)cc(I)cc12 [P.184, 6-[5-[(1S)-1-[[6-iodo-8-(trifluoromethyl)quinazolin-4-yl]-methyl-amino]ethyl]-1,2,4-triazol-1-yl]pyridine-3-carbonitrile]
≥ 80%: mortality at 12 ppm [1] | percent control (mortality or growth inhibition) at 200 ppm [2] | mortality at 200 ppm [3] | percent control (mortality or growth inhibition) at 200 ppm [5] | percent control (mortality, anti-feedant effect or growth inhibition) at 200 ppm [6]

CC(c1ncnn1-c1ccc(OC(F)F)cn1)N(C)c1ncnc2c(C(F)(F)F)cc(Cl)cc12 (stereo not drawn) [P.236, 6-chloro-N-[1-[2-[5-(difluoromethoxy)-2-pyridyl]-1,2,4-triazol-3-yl]ethyl]-N-methyl-8-(trifluoromethyl)quinazolin-4-amine]
≥ 80%: mortality at 12 ppm [1] | percent control (mortality or growth inhibition) at 200 ppm [2] | mortality at 200 ppm [3] | percent control (mortality, anti-feedant effect or growth inhibition) at 200 ppm [4] | percent control (mortality or growth inhibition) at 200 ppm [5] | percent control (mortality, anti-feedant effect or growth inhibition) at 200 ppm [6]

C[C@@H](c1ncnn1-c1ccc(C(N)=S)cn1)N(C)c1ncnc2c(C(F)(F)F)cc(C(F)(F)F)cc12 [P.190, 6-[5-[(1S)-1-[[6,8-bis(trifluoromethyl)quinazolin-4-yl]-methyl-amino]ethyl]-1,2,4-triazol-1-yl]pyridine-3-carbothioamide]
≥ 80%: mortality at 12 ppm [1] | percent control (mortality or growth inhibition) at 200 ppm [2] | mortality at 200 ppm [3] | percent control (mortality or growth inhibition) at 200 ppm [5] | percent control (mortality, anti-feedant effect or growth inhibition) at 200 ppm [6] | percent control (mortality or growth inhibition) at 200 ppm [7]

C[C@@H](c1ncnn1-c1ncccn1)N(C)c1ncnc2c(OC(F)F)cc(Cl)cc12 [P.90, 6-chloro-8-(difluoromethoxy)-N-methyl-N-[(1S)-1-(2-pyrimidin-2-yl-1,2,4-triazol-3-yl)ethyl]quinazolin-4-amine]
≥ 80%: mortality at 12 ppm [1] | percent control (mortality or growth inhibition) at 200 ppm [2] | mortality at 200 ppm [3] | percent control (mortality or growth inhibition) at 200 ppm [5] | percent control (mortality, anti-feedant effect or growth inhibition) at 200 ppm [6] | percent control (mortality or growth inhibition) at 200 ppm [7]
